Test system: LCSCs
Assay: In vitro thermotherapy and chemotherapy under AMF or water bath, MTT assay
Type: cell-based, human
Details: 37° C. under AMF for 30 min, 100 mg/mL for 1 h
Description: The AMF was generated by a 5 cm diameter 8-turn induction coil powered by a 3 kW alternating magnetic field generator. LCSCs were seeded in the 6-well plate at a density of 5×10^4 cells/mL. After 24 h incubation, cells were separately treated with 100 mg/mL CD20-Fe3O4@SiNPs, CD20-HSPI&Fe3O4@SiNPs, Fe3O4@SiNPs, HSPI&Fe3O4@SiNPs, SiNPs, and HSPI for 1 h. Cells without treatment were used as control. Following two washes with PBS, cells were placed inside the coil and heated to a defined temperature (between 37 and 50° C.) for 30 min. While frequency was kept constant at 350 kHz and temperature was monitored by using a thermometer immersed in a test tube containing 2 mL of solution. The traditional heating method (water bath heater) was used to compare with AMF heating. Cell survival was assessed by MTT assay.

With `CO[C@H]1/C=C\C=C(/C)C(=O)NC2=CC(=O)C(NCCN(C)C)=C(C[C@@H](C)C[C@H](OC)[C@H](O)[C@@H](C)/C=C(\C)[C@@H]1OC(N)=O)C2=O` [HSPI, 17-(Dimethylaminoethylamino)-17-demethoxygeldanamycin] the cell survival rate was 77%.
